Assays:
Type in all cases: in vivo, human
Conditions in all cases: CAPROS 250 mg twice daily, Atorvastatin 10 mg daily, n = 20
Type 2 Diabetic Subjects [1] = assay: Biomarkers of oxidative stress and hsCRP, study (c)
Procedure: Malondialdehyde (MDA) levels were determined as described in Vidyasagar, et al., “Oxidative stress and antioxidant status in acute organophosphorous insecticide poisoning,” Indian J. Pharmacol. (April 2004) 36(2): 76-79. Glutathione levels were determined as described in G. L. Ellman, Arch. Biochem. Biophys. (1959) 82: 70-77 (original determination). Nitric oxide levels were estimated spectrophotometrically as described in Miranda, et al., “A Rapid, Simple Spectrophotometric Method for Simultaneous Detection of Nitrate and Nitrite,” NITRIC OXIDE: Biology and Chemistry (2001) Vol. 5, No. 1, pp. 62-71.
(§1) After screening, all the eligible subjects were randomized to receive either one of the four treatments for a duration of 12 weeks, as follows.
Nitric oxide, MDA, Glutathione (GSH) and levels thereof were estimated spectrophotometrically as described above, and HsCRP (high sensitivity C-reactive protein) by ELISA method.

Type 2 Diabetic Subjects [2] = assay: Other cardiovascular pharmacodynamic parameters (AIx, SEVR, ABI, PWV, CO, SVR), study (c)
Procedure: The augmentation index (AIx, defined as augmented pressure divided by pulse pressure and expressed as a percentage) is thus a composite measure of the magnitude of wave reflections and arterial stiffness, which affects timing of wave reflections. Because the augmentation index is influenced by changes in heart rate (HR), it is also accordingly corrected (AIx@75). The augmentation index was measured by using a validated, commercially available system (SphygmoCor; AtCor Medical, Sydney, Australia) that employs the principle of applanation tonometry and appropriate acquisition and analysis software for noninvasive recording and analysis of the arterial pulse. […] Waveforms of radial pressure were calibrated according to sphygmomanometric systolic and diastolic pressure measured in the brachial artery because there is practically negligible pressure pulse amplification between the brachial and the radial artery.
The subendocardial viability index, an indicator of myocardial workload and perfusion (O2 supply vs. demand) was calculated as the ratio of the integral of diastolic pressure and time to the integral of systolic pressure and time.
Brachial-ankle pulse wave velocity (baPWV) is also used to evaluate arterial stiffness. Pulse wave velocity is the speed at which the blood pressure pulse travels from the heart to the peripheral artery after blood rushes out during contraction. It is mainly used to evaluate stiffness of the artery wall. Pulse wave velocity increases with stiffness of the arteries. The PTT (Pulse Transit Time) of each segment is calculated from the waveform taken from each sensor. Pulse wave velocity is defined in Equation (1): […]
Brachial Ankle Pulse Wave Velocity (baPWV), Ankle Brachial Index (ABI) and Blood Pressure (BP) were measured using an automatic waveform analyzer (model BP-203 RPE; Colin Medical Technology, Komaki, Japan). Measurements were taken with patients lying in a supine position after 5 minutes of rest in that position. Occlusion and monitoring cuffs were placed snugly around both sites of the upper and lower extremities of patients. Pressure waveforms of the brachial and tibial arteries were then recorded simultaneously by an oscillometric method. Measurement of right and left baPWV was obtained for an average of 10 seconds. The average of left and right baPWV will be used for analysis.
Recording of cardiac output (CO) was performed using L&T Nivomon monitor (Larsen & Toubro Ltd., Mumbai, India). Noninvasive continuous cardiac output monitor with peripheral blood flow measurement option. This equipment is very useful and versatile. It calculates many cardiac parameters directly including cardiac output. It works on the features of impedance plethysmography principle and has tetrapolar configuration. The advantage is that this equipment directly calculates the cardiac output along with other parameters using the pulse wave.
as §1
The clinical measurements and pharmacodynamic tests were performed as described above in studies (a) or (b), unless otherwise stated.

Type 2 Diabetic Subjects [3] = assay: Marker of endothelial function: reflection index (RI), study (c)
Excerpt: A salbutamol (albuterol) challenge test employing digital volume plethysmography was used to assess endothelial function as reported by Chowienczyk et al., “Photoplethysmographic assessment of pulse wave reflection: blunted response to endothelium dependant beta 2-adrenergic vasodilation in type 2 diabetes mellitus,” J. Am. Coll. Cardiol. (1999 December) 34(7):2007-14; and Naidu, et al., “Comparison of two β2 adrenoceptor agonists by different routes of administration to assess human endothelial function,” Indian J. Pharmacol. (2007) 39:168-9. The patients were examined in supine position after 5 minutes of rest. A digital volume pulse (DVP) was obtained using a photo plethysmograph (Pulse Trace PCA2, PT200, Micro Medical, Gallingham, Kent, UK) transmitting infrared light at 940 nm, placed on the index finger of the right hand. The signal from the plethysmograph was digitized using a 12 bit analogue to digital converter with a sampling frequency of 100 Hz. DVP waveforms were recorded over 20 second period and the height of the late systolic/early diastolic portion of the DVP was expressed as a percentage of the amplitude of the DVP to yield the reflection index (RI), per the procedure described in detail by Millasseau et al., “Determination of age related increases in large artery stiffness by digital pulse contour analysis,” Clinical Science (2002) 103: 371-377. Three DVP recordings were taken, and measurements of reflection index (RI) were calculated and the mean value was determined. Patients were then administered 400 μg of salbutamol by inhalation. After 15 minutes three measurements of RI were obtained again and the difference in mean RI before and after administration of salbutamol was used for assessing endothelial function. A change of ≦6% in RI post-salbutamol was considered as endothelial dysfunction.
Study (c) design. […]

## CC(C)c1c(C(=O)Nc2ccccc2)c(-c2ccccc2)c(-c2ccc(F)cc2)n1CC[C@@H](O)C[C@@H](O)CC(=O)O [Atorvastatin]
Type 2 Diabetic Subjects [1]; 12 weeks
  Absolute change in MDA: −1.17 ± 0.75 nM/ml
  Absolute change in NO: 28.45 ± 12.30 μM/L
  Absolute change in hsCRP: −2.10 ± 1.26 Mg/L
  Mean percentage change in MDA: −30.55 ± 19.81%
  Mean percentage change in NO: 88.44 ± 50.97%
  Mean percentage change in hsCRP: −64.90 ± 26.99%
Type 2 Diabetic Subjects [1]; Post TT, 12 weeks
  MDA: 2.37 ± 0.59 nM/ml
  NO: 63.69 ± 15.04 μM/L
  hsCRP: 0.97 ± 0.78 Mg/L
Type 2 Diabetic Subjects [1]; Pre TT
  MDA: 3.54 ± 0.85 nM/ml
  NO: 35.24 ± 9.71 μM/L
  hsCRP: 3.08 ± 1.38 Mg/L
Type 2 Diabetic Subjects [2]; 12 weeks
  Absolute change in ABI: 0.08 ± 0.06
  Absolute change in AIx: −12.14 ± 5.44%
  Absolute change in CO: 0.84 ± 0.43 lt/min
  Absolute change in PWV: −175.5 ± 110.82 cm/s
  Absolute change in SEVR: 11.09 ± 6.51%
  Absolute change in SVR: −182.3 ± 109.61 dyne · sec/cm^5
Type 2 Diabetic Subjects [2]; Post TT, 12 weeks
  ABI: 1.10 ± 0.04$
  AIx: 123.4 ± 13.4$ %
  CO: 5.15 ± 0.47$ lt/min
  PWV: 1346 ± 147.6$ cm/s
  SEVR: 146.5 ± 16.09$ %
  SVR (Systemic Vascular Resistance): 1336.95 ± 251.3$ dyne · sec/cm^5
Type 2 Diabetic Subjects [2]; Pre TT
  ABI: 1.02 ± 0.07
  AIx: 135.5 ± 14.71%
  CO: 4.13 ± 0.65 lt/min
  PWV: 1522 ± 127.7 cm/s
  SEVR: 135.4 ± 19.11%
  SVR (Systemic Vascular Resistance): 1519.25 ± 296.3 dyne · sec/cm^5
Type 2 Diabetic Subjects [3]; 12 weeks
  Absolute change in RI: −8.35 ± 4.17%
Type 2 Diabetic Subjects [3]; Post TT, 12 weeks
  RI(%), Mean: −11.03$ %
Type 2 Diabetic Subjects [3]; Pre TT
  RI(%), Mean: −2.68%
